Assay results taken from US7541188B2, “Skin substitutes and uses thereof” (Stratatech Corporation, priority 2001, dated 2009).
Like-named read-outs stand apart in the source and are kept apart here.

Columns and labels:
[1] = tested on: in vitro skin equivalent cultures; conditions: substance added to in vitro cultures, cited from earlier work
skin equivalents = conditions: irritant-treated skin equivalents; cited from earlier work
[2] = tested on: tracheobronchial epithelial cells; conditions: cited from earlier work
[3] = tested on: NIKS organotypic cultures; test: IL-1α secretion by NIKS organotypic cultures (Quantikine IL-1α ELISA of media); format: cell-based, human; conditions: 0.1% SDS applied topically, 24 hr, 37° C.
Procedure: Solutions of SDS (0.1%, 0.2%, and 0.5%) were topically applied to air-exposed NIKS organotypic cultures and incubated for 24 hr at 37° C. After 24 hr, the media underneath the cultures was assayed for IL-1α protein using a Quantikine IL-1α ELISA kit (R&D Systems, Minneapolis, Minn.) and cultures were incubated with MTS reagent (Promega Corp., Madison, Wis.) to determine cell viability. Media from untreated cultures contained 25 pg/ml IL-1α, whereas the concentration of IL-1α in cultures treated with 0.1%, 0.2% or 0.5% SDS was 290, 375 and 275 pg/ml respectively.

[4] = tested on: in vitro skin equivalent cultures; conditions: substance added to in vitro cultures; cited from earlier work

**Q.** For Vitamin D, which “Barrier Function” value [1] is on record?
**A.** The value was “Improved/No”.

**Q.** What about the “Barrier Function” value ([1]; listed as vitamin D) of the same compound?
**A.** Its value is “improvements in some studies”.

**Q.** With Estrogen as the compound, how does the “Barrier Function” value [1] read?
**A.** The value was “Accelerates”.

**Q.** For `CC1=C(/C=C/C(C)=C/C=C/C(C)=C/C(=O)O)C(C)(C)CCC1` [trans-retinoic acid], which “expression and secretion of the pro-inflammatory cytokines IL-1α and IL-8” value (“expression and secretion” below) (skin equivalents) is on record?
**A.** The value was “induce expression and secretion”.

**Q.** What about the “induction of reporter gene containing IL-8 promoter sequences between −1472 and +19” value [2] of the same compound?
**A.** The value was “induced”.

**Q.** For `CCCCCCCCCCCCOS(=O)(=O)[O-].[Na+]` [SDS], which “expression and secretion” value (skin equivalents) is on record?
**A.** Its value is “induce expression and secretion”.

**Q.** And the “concentration of IL-1α in media” value [3]?
**A.** Its value is 290 pg/mL.

**Q.** Which “Lipid Composition” value [4] does the source give for “EGF: epidermal growth factor (NSDSECPLSHDGYCLHDGVCMYIEALDKYACNCVVGYIGERCQYRDLKWWELR; Epidermal growth factor; UniProt P01133 971-1023, looked up)” here?
**A.** The value was “High”.

**Q.** For `C=C1/C(=C\C=C2/CCC[C@]3(C)[C@@H]([C@H](C)/C=C/[C@@H](O)C4CC4)CC[C@@H]23)C[C@@H](O)C[C@@H]1O` [calcipotriol], which “expression and secretion” value (skin equivalents) is on record?
**A.** Its value is “induce expression and secretion”.
